Data set [1] can be described thus: Ratio of drug concentration in mouse blood to plasma at 10 uM measured upto 120 mins by LC-MS/MS analysis. It counts as ADME, cell-free.
In data set [2] the test system is SK-MEL-30. Put plainly: Inhibition of ERK1/2 phosphorylation in human SK-MEL-30 cells harboring […] mutant incubated for 4 hrs by AlphaLISA assay. It counts as cell-based. (In general: Alpha assays give light when donor and acceptor beads are brought close together.)
Data set [3] is described as follows: Clearance in male Sprague-Dawley rat at 1 mg/kg, iv measured after 24 hrs by LC-MS/MS analysis. Type of data set: ADME, organism-based. The conditions noted are these: in vivo.
Data set [4] relates to NCI-H441. Put plainly: Antitumor activity against human NCI-H441 cells harboring wildtype KRAS/KRAS G12V mutant xenografted in female BALB/c nude mouse assessed as tumor regression at 25 mg/kg, po administered once daily for 28 days. It counts as functional, organism-based. The settings on record: time 28.0 day.
In data set [5] the test system is NCI-H441. Put plainly: Cytotoxicity against human NCI-H441 cells harboring KRAS G12V mutant cultured as 2D cells assessed as inhibition of cell proliferation incubated for 120 hrs by CellTiter-Glo luminescence assay. It counts as functional, cell-based. (In general: ATP-based viability assays read luminescence as a measure of living cells.)
Data set [6] deals with ASPC1. Put plainly: Cytotoxicity against human ASPC1 cells harboring KRAS G12D mutant cultured as 2D cells assessed as reduction in cell viability incubated for 120 hrs by CellTiter-Glo luminescence assay. It counts as functional, cell-based. The conditions noted are these: ASPC1, 120 h.
Data set [7] is described as follows: Toxicity in female BALB/c nude mouse xenografted with human HPAF-II cells harboring wildtype KRAS/KRAS G12D mutant assessed as effect on body weight at 25 mg/kg, po administered once daily for 28 days. It counts as organism-based. The settings on record: in vivo, 672 h, time 28 day. For orientation: In xenograft studies the graft and the host belong to different species.

Calls of active or inactive are those of the source. The rule behind the calls is not given here.

One may read the clearance as a measure of how efficiently the substance is removed, as volume per time. Higher therefore signals a high capacity for elimination. By EC50 is commonly meant the concentration at which the effect is half-maximal.

As to `CCn1c(-c2cc(N3CCN(C)CC3)cnc2[C@H](C)OC)c2c3cc(ccc31)-c1csc(n1)C[C@H](NC(=O)[C@H]1C[C@@H]1C)C(=O)N1CCC[C@H](N1)C(=O)OCC(C)(C)C2`, in data set [1], the blood plasma ratio at 2 h, 10 µM stood at 1.1. Besides, the inhibition result in data set [2] is “Active”. For the same compound, the clearance in data set [3] was 21.7 mL/min/kg. Moreover, the result in data set [4] and in data set [5] was Active. In addition, the EC50 in data set [6] is 3.1 nM. Moreover, the Activity entry in data set [7] is given as “Non-toxic”.

(Values after ChEMBL document CHEMBL6115029, “Discovery of Daraxonrasib (RMC-6236), a Potent and Orally Bioavailable RAS(ON) Multi-selective, Noncovalent Tri-complex Inhibitor for the Treatment of Patients with Multiple RAS-Addicted Cancers” (J Med Chem, 2025).)
